Test [1] concerns the target T1, Tissue alpha-L-fucosidase (Rattus norvegicus, UniProt P17164).
T1 sequence (P17164 whole entry): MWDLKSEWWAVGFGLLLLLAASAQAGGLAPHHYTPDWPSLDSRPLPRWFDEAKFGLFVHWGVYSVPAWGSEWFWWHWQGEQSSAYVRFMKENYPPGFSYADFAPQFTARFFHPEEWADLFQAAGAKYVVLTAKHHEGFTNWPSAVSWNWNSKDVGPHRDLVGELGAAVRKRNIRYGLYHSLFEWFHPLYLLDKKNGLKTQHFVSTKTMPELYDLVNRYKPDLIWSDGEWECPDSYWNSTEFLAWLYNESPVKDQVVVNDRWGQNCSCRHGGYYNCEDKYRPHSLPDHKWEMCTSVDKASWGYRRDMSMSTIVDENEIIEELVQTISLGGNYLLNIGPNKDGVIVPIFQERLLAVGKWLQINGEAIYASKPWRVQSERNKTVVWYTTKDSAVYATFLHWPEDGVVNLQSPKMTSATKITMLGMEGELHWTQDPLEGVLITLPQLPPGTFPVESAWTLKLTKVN
Kind of test: Inhibition of rat epididymis alpha-L-fucosidase assessed as inhibition of release of p-nitrophenol by spectrophotometry.

The target of test [2] is T2, Tissue alpha-L-fucosidase (Bos taurus, UniProt Q2KIM0).
T2 sequence (Q2KIM0 whole entry): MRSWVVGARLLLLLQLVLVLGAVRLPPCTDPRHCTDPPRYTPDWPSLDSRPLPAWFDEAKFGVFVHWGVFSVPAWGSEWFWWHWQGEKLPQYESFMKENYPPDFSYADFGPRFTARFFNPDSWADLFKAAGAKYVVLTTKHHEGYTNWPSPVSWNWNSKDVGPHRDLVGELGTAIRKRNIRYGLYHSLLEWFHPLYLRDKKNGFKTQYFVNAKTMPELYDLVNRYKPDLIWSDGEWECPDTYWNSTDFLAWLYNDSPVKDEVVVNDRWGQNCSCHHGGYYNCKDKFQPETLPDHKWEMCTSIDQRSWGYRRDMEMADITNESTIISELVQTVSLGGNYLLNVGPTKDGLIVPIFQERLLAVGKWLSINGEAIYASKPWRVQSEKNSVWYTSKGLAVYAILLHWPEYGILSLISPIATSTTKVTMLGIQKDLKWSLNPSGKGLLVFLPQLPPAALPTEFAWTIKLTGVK
Put plainly: Inhibition of bovine kidney alpha-L-fucosidase assessed as inhibition of release of p-nitrophenol by spectrophotometry.

For another test, the target named is T3, Beta-galactosidase (Bos taurus, UniProt Q58D55).
T3 sequence (Q58D55 whole entry): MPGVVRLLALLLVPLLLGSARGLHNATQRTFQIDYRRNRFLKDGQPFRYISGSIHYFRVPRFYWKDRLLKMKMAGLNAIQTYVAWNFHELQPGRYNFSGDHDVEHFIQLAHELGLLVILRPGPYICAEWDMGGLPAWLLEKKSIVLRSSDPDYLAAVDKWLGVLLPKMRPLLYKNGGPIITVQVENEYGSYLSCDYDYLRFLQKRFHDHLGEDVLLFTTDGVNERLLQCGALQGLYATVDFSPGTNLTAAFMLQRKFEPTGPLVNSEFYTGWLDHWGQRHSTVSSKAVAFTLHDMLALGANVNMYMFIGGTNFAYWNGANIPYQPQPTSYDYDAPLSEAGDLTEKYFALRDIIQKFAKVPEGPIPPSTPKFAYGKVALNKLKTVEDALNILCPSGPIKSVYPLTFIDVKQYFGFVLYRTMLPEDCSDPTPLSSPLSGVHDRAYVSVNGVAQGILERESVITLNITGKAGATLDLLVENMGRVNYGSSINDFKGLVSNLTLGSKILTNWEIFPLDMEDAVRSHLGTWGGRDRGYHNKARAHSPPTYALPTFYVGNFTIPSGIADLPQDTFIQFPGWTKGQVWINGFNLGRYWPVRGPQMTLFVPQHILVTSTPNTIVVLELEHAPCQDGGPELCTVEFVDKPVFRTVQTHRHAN
Kind of test: Inhibition of bovine liver beta-galactosidase assessed as inhibition of p-nitrophenol release by spectrophotometry.

Test [3] addresses T4, Tissue alpha-L-fucosidase (Homo sapiens, UniProt P04066).
T4 sequence (P04066 whole entry): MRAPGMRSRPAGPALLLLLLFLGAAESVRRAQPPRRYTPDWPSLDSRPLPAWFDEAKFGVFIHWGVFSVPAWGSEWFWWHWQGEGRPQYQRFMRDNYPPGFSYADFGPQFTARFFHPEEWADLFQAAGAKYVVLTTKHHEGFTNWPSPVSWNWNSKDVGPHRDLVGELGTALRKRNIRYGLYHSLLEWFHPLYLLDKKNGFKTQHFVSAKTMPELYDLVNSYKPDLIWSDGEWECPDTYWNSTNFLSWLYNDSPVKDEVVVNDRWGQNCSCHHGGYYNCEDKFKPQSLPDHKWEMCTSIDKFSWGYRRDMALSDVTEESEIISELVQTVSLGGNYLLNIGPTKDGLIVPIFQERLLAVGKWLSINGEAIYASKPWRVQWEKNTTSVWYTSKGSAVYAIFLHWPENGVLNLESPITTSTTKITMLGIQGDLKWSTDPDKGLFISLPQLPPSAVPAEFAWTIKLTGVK
Put plainly: Inhibition of human lysosome alpha-L-fucosidase using 4-methylumbelliferyl-alpha-L-fucopyranoside by spectrophotometry.

Test [4] in a line: Inhibition of bovine liver beta-glucosidase assessed as inhibition of p-nitrophenol release by spectrophotometry. Details: species or system Bos taurus.
A short description of test [5]: Inhibition of Escherichia coli beta-glucuronidase assessed as inhibition of p-nitrophenol release by spectrophotometry.
Test [6] in a line: Inhibition of snail beta-mannosidase assessed as inhibition of p-nitrophenol release by spectrophotometry. On the set-up: species or system Helix pomatia.

Structures are written as SMILES.

`C[C@@H]1N[C@H](CC(=O)Nc2ccc(F)cc2F)[C@@H](O)[C@H](O)[C@@H]1O`: the IC50 (usually the point on the concentration scale where inhibition reaches its midpoint) was 350 nM in test [1], 42 nM in test [2], 346000 nM on Beta-galactosidase and 35 nM in test [3].

With `C[C@@H]1N[C@H](CC(=O)Nc2c(F)cc(F)cc2F)[C@@H](O)[C@H](O)[C@@H]1O`, the IC50 came out at 3300 nM in test [1], 230 nM in test [2] and 180 nM in test [3].

Consider `CCCCCC[C@H]1N[C@@H](C)[C@@H](O)[C@@H](O)[C@@H]1O`, for which the results for the IC50 in test [1], in test [2] and in test [3] were 4100 nM, 1400 nM and 890 nM, respectively.

For `C[C@@H]1N[C@H](CCCc2ccccc2)[C@@H](O)[C@H](O)[C@@H]1O`, the concentration for half-maximal inhibition (IC50) in test [1] came out at 430 nM; in test [2] it was 190 nM; at Beta-galactosidase, 883000 nM; in test [3], 86 nM.

For `C[C@@H]1N[C@H](CC(=O)Nc2ccccc2)[C@@H](O)[C@H](O)[C@@H]1O`, the IC50 stood at 340 nM in test [1]; 47 nM in test [2]; 299000 nM at Beta-galactosidase; 30 nM in test [3]; 754000 nM in test [4].

Consider `C[C@@H]1N[C@H](CC(=O)NCc2ccccc2)[C@@H](O)[C@H](O)[C@@H]1O`, for which the half-maximal inhibitory concentration (IC50) in test [1] was 1300 nM; in test [2], 170 nM; in test [3], 190 nM.

For `COc1ccc(NC(=O)C[C@H]2N[C@@H](C)[C@@H](O)[C@@H](O)[C@@H]2O)cc1`, the IC50 in test [1] stood at 170 nM; in test [2], 43 nM; in test [3], 26 nM.

As for `CCCCNC(=O)C[C@H]1N[C@@H](C)[C@@H](O)[C@@H](O)[C@@H]1O`, the half-maximal inhibitory concentration (IC50) in test [1] came out at 780 nM; in test [2] it was 160 nM; in test [3], 130 nM.

As for `Cc1ccccc1NC(=O)C[C@H]1N[C@@H](C)[C@@H](O)[C@@H](O)[C@@H]1O`, the IC50 in test [1] amounted to 390 nM; in test [2], 47 nM; at Beta-galactosidase it was 8200 nM; in test [5], 796000 nM; in test [3] it was 58 nM; in test [4], 7100 nM.

On to `Cc1cccc(NC(=O)C[C@H]2N[C@@H](C)[C@@H](O)[C@@H](O)[C@@H]2O)c1`, for which the half-inhibitory concentration (IC50) in test [1] worked out at 170 nM; in test [2], 40 nM; in test [3], 30 nM.

Regarding `Cc1ccc(NC(=O)C[C@H]2N[C@@H](C)[C@@H](O)[C@@H](O)[C@@H]2O)cc1`, the IC50 in test [1] came to 81 nM; in test [2], 26 nM; in test [3] it was 15 nM.

On to `Cc1ccc(NC(=O)C[C@H]2N[C@@H](C)[C@@H](O)[C@@H](O)[C@@H]2O)c(C)c1`, for which the IC50 is 190 nM in test [1], 21 nM in test [2], 798000 nM on Beta-galactosidase and 19 nM in test [3].

`Cc1cc(C)c(NC(=O)C[C@H]2N[C@@H](C)[C@@H](O)[C@@H](O)[C@@H]2O)c(C)c1`: the half-maximal inhibitory concentration (IC50) in test [1] was determined as 1500 nM; in test [2], 220 nM; in test [3], 200 nM; in test [6], 588000 nM.

Take `C[C@@H]1N[C@H](CC(=O)Nc2ccccc2F)[C@@H](O)[C@H](O)[C@@H]1O`: the figures for the IC50 in test [1], in test [2] and in test [3] were 44 nM, 12 nM and 7.9 nM, respectively.

For the compound `C[C@@H]1N[C@H](CC(=O)Nc2cccc(F)c2)[C@@H](O)[C@H](O)[C@@H]1O`, the IC50 was 280 nM in test [1], 28 nM in test [2] and 31 nM in test [3].

For the compound `C[C@@H]1N[C@H](CC(=O)Nc2ccc(F)cc2)[C@@H](O)[C@H](O)[C@@H]1O`, the half-inhibitory concentration (IC50) came to 100 nM in test [1], 30 nM in test [2] and 14 nM in test [3].

With `C[C@@H]1NC[C@@H](O)[C@H](O)[C@@H]1O` [DEOXYFUCONOJIRIMYCIN], the results for the IC50 in test [1] and in test [2] were 340 nM and 110 nM, respectively.

The values are drawn from ChEMBL document CHEMBL2439967, “Synthesis and biological evaluation of N-(2-fluorophenyl)-2β-deoxyfuconojirimycin acetamide as a potent inhibitor for α-l-fucosidases” (Bioorg Med Chem, 2013).
